ChEMBL document CHEMBL5729483, “Compositions and methods for treating infections” (2022)

Biological target: Bifunctional dihydrofolate reductase-thymidylate synthase (Plasmodium falciparum K1, UniProt P13922)
Assay: TBD: TBD
Design: species or system Isolate K1 / Thailand

Bifunctional dihydrofolate reductase-thymidylate synthase, sequence (P13922 whole entry): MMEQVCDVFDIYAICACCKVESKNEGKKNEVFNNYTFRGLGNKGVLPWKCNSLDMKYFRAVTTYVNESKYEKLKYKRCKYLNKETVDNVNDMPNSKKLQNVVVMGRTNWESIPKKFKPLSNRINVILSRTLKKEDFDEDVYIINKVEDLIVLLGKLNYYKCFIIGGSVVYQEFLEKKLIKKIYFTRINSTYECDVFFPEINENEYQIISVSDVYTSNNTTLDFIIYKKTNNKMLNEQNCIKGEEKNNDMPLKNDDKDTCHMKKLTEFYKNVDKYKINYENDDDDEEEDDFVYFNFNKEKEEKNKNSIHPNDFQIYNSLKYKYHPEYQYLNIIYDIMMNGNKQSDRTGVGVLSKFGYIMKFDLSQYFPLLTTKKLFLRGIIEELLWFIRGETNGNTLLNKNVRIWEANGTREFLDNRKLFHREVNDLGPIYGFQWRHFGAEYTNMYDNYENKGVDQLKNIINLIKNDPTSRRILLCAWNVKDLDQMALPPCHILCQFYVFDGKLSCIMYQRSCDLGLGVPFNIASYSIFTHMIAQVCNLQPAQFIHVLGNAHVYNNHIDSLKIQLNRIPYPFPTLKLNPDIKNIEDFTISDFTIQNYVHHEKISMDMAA

## Nc1ncc(N2CCN(c3cccc(C4CCOCC4)c3)CC2)c(N)n1
  IC50: 1.1 nM
